We go through 48 compounds from PubChem BioAssay AID1419 (Emory University Molecular Libraries Screening Center, 2008).

Structures are written as SMILES. Activity calls are given as the source filed them. How the calls were made is not given here.

A short description of this experiment: EBV protein-peptide binding inhibitors, dose response, biochemical, fluorescence polarization (AID 1419). Conditions: cell-free protein-peptide binding, 2 h; for fold change: measured here: P channel fold over control, at 54 µM. (In general: Fluorescence polarisation rises when a labelled molecule tumbles more slowly, as on binding a larger partner.)

As a reminder, the IC50 is the concentration that gives 50% inhibition. Take `Cc1cccc(-n2c(SCc3cc(=O)n4ccsc4n3)nc3ccccc32)c1`: the half-inhibitory concentration (IC50) is 2.79 µM and the fold change is 1.78.

With `O=C(COC(=O)c1cccnc1)NC1CCCc2ccccc21` (stereo unspecified), the IC50 was > 54 µM (inactive) and the fold change turned out to be 1.84.

Regarding `Cc1cc(C=C2C(=O)c3ccccc3C2=O)c(C)n1-c1ccccc1`, the half-inhibitory concentration (IC50) was 5.56 µM and the fold change is 9.41.

For `COc1cc(/C=C2\SC(=O)N(c3ccc(Cl)cc3)C2=O)cc([N+](=O)[O-])c1O`, the half-inhibitory concentration (IC50) was 4.58 µM and the fold change was found to be 1.13.

Consider `CCN(CC)C(=O)CC(c1cc(OC)c(OC)c(OC)c1)c1c(OC)cc(OC)c2c(-c3ccccc3)cc(=O)oc12` (stereo unspecified), for which the IC50 was 33.8 µM (inactive) and the fold change stood at 1.01.

On to `Clc1ccc(C2=CC(c3ccco3)n3ncnc3N2)cc1` (stereo unspecified), for which the IC50 was 3.9 µM and the fold change was determined as 3.17.

For `O=C(CCN1CCN(c2ccccc2)CC1)N/N=C/c1ccc(O)c(O)c1O`, the IC50 is > 54 µM (inactive) and the fold change was found to be 1.01.

Regarding `CCn1c(CSc2nnc3ccccn23)nc2cc(C(=O)O)ccc21`, the IC50 was 4.04 µM and the fold change was 1.93.

Turning to `O=C1C(=Cc2ccc(Br)o2)C(=O)c2ccccc21`, the IC50 was > 54 µM (inactive) and the fold change was 1.09.

As to `O=[N+]([O-])c1ccc(-c2cn(-c3ccc(Cl)cc3)c(=S)[nH]2)cc1`, the IC50 was > 54 µM (inactive) and the fold change turned out to be 0.93.

For the compound `O=C(N=Nc1c(O)[nH]c2ccccc12)c1cc(-c2cccs2)[nH]n1`, the half-maximal inhibitory concentration (IC50) was 19.6 µM and the fold change was determined as 0.72.

As to `Cc1c(O)c2c3c(cccc3c1O)C(=O)N(c1ccccc1)C2=O`, the concentration for half-maximal inhibition (IC50) is 1.41 µM and the fold change was 7.05.

As for `COc1cc(C=C2C(=O)c3ccccc3C2=O)cc(OC)c1OC`, the IC50 was > 54 µM (inactive) and the fold change worked out at 1.06.

Turning to `Cc1ccc(C)n1-c1cc(S(=O)(=O)N2CCOCC2)ccc1N1CCCC1`, the IC50 was > 54 µM (inactive) and the fold change worked out at 1.02.

`COc1ccc(N=C2NC(=O)S/C2=C\c2ccc(N(C)C)cc2)cc1`: the IC50 is 4.75 µM and the fold change is 3.03.

Consider `Cc1cc[n+](-c2[nH]c(=O)sc2/C=N/NC([S-])=Nc2ccccc2)cc1C`, for which the IC50 was > 54 µM (inactive) and the fold change worked out at 1.95.

As to `Cc1nnc(N2C(=O)C(O)=C(C(=O)c3ccco3)C2c2ccc(F)cc2)s1` (stereo unspecified), the IC50 is 10.4 µM and the fold change came to 2.42.

`COc1ccc(NC(=O)N(CCc2ccccc2)Cc2cc3c(C)cc(C)cc3[nH]c2=O)cc1`: the IC50 is > 54 µM (inactive) and the fold change was 0.987.

Take `C(=N\N1CCOCC1)/c1nc(-c2ccccc2)n2ccccc12`: the concentration for half-maximal inhibition (IC50) was 26.6 µM and the fold change stood at 4.71.

As to `CC(C)(C)N1CC(c2nc3ccccc3n2CCOc2ccccc2)CC1=O` (stereo unspecified), the IC50 is 15.4 µM and the fold change was determined as 1.08.

As to `Nn1c(SCC(=O)NC(=O)NCc2ccco2)nnc1-c1ccc(OC(F)F)cc1`, the IC50 is 31.1 µM (inactive) and the fold change came to 1.09.

On to `Cc1ccc(N=Nc2[nH]c3ccccc3c2O)cc1`, for which the IC50 was 4.87 µM and the fold change amounted to 27.

On to `CN(C)c1ccc(/C=C(\C#N)C(=O)Nc2nc3c(s2)CCN(Cc2ccccc2)C3)cc1`, for which the half-inhibitory concentration (IC50) is 1.21 µM and the fold change was 19.9.

Take `Cc1cc(C)c2cc3c(ccn3C3OC[C@H](O)[C@H](O)[C@H]3O)cc2n1` (stereo partly specified): the concentration for half-maximal inhibition (IC50) is 3.78 µM and the fold change was 2.96.

As to `O=C1Nc2ccccc2/C1=C/c1cnc(-c2ccccc2)[nH]1`, the 50% inhibitory concentration (IC50) was 4.23 µM and the fold change was determined as 14.6.

Take `CCOC(=O)C1C(=O)C=C(/C=C/c2ccc(N(C)C)cc2)CC1c1ccccc1` (stereo unspecified): the IC50 was > 54 µM (inactive) and the fold change is 7.93.

For the compound `Cn1cc(/C=C2\SC(=S)N(NC(=O)c3cccc(Cl)c3)C2=O)c2ccccc21`, the IC50 is 4.3 µM and the fold change was determined as 8.23.

Take `O=C(/C(=C(\[O-])c1ccccc1)[n+]1ccc2ccccc2c1)c1ccc(Cl)cc1`: the IC50 is 8.26 µM and the fold change was determined as 2.35.

As to `Cc1c(N=C2N=C(NC(=O)c3cccs3)c3ccccc32)c(=O)n(-c2ccccc2)n1C`, the half-inhibitory concentration (IC50) was 3.19 µM and the fold change was 4.49.

Regarding `CCN(CC)c1ccc2cc(C(=O)NNC(=O)c3ccc(S(=O)(=O)N4CCCCC4)cc3)c(=O)oc2c1`, the half-inhibitory concentration (IC50) is 3.01 µM and the fold change is 87.1.

Turning to `C#CCOC(=O)/C(=C/C=C/c1ccccc1)NC(=O)c1ccccc1`, the IC50 was > 54 µM (inactive) and the fold change came out at 1.01.

For `CC(O)CCc1nc2ccc(C(=O)O)cc2[nH]1` (stereo unspecified), the IC50 is > 54 µM (inactive) and the fold change turned out to be 0.983.

Consider `COc1ccc(/C(O)=C/c2nc3ccccc3n(-c3ccccc3)c2=O)cc1`, for which the IC50 was > 54 µM (inactive) and the fold change was determined as 17.

As to `O=C1NC(=O)N(c2ccc(F)cc2)C(=O)/C1=C/c1ccc2c(c1)CCCN2Cc1ccccc1`, the IC50 is < 0.42 µM and the fold change was 38.

In the case of `CCC1=NN2C(=N)/C(=C\c3cccn3-c3ccc(Br)cc3)C(=O)N=C2S1`, the IC50 is > 54 µM (inactive) and the fold change came out at 1.04.

In the case of `COC(=O)c1ccc2c(=O)sc(N3CCC(C(N)=O)CC3)nc2c1`, the concentration for half-maximal inhibition (IC50) is 4 µM and the fold change amounted to 2.35.

Regarding `N#Cc1c(C#N)c(O)c2ccccc2c1O`, the IC50 was 4.02 µM and the fold change worked out at 3.34.

In the case of `CC1=Nc2ccccc2/C1=C\c1nc(-c2ccc(F)cc2)oc1O`, the IC50 is 1.7 µM and the fold change was found to be 19.

For `CC(=O)NC1C(OCCOc2ccc(Cl)cc2Cl)OC(COC(C)=O)C(OC(C)=O)C1OC(C)=O` (stereo unspecified), the IC50 was > 54 µM (inactive) and the fold change came out at 1.04.

Take `Nc1ccc2nc3c(=O)n(C4CCCCC4)c(=O)[nH]c3nc2c1`: the IC50 is < 0.42 µM and the fold change worked out at 101.

In the case of `COC(=O)c1ccccc1NC(=O)CCS(=O)(=O)c1ccc(Br)cc1`, the 50% inhibitory concentration (IC50) is 12.2 µM and the fold change was determined as 1.08.

As for `CCCNC(=O)Cn1c(=O)/c(=C\c2ccc(-c3cccc([N+](=O)[O-])c3)o2)s/c1=C\C(=O)C(C)(C)C`, the IC50 was 1.02 µM and the fold change is 8.62.

As for `O=C1CSC(=S)N1/N=C/c1ccc(O)c(O)c1O`, the IC50 is 2.61 µM and the fold change amounted to 1.04.

As to `O=c1[nH]c2ccc(N=Cc3c(O)ccc4cc(Br)ccc34)cc2[nH]1`, the IC50 was 0.97 µM and the fold change is 7.85.

Take `COc1ccc2nc(N3CCCC3)c(C#N)cc2c1`: the IC50 was < 0.42 µM and the fold change came to 16.7.

For `CCN(CC)c1ccc(/C=C/C(=O)c2ccc(Br)cc2)cc1`, the IC50 was 2.64 µM and the fold change is 31.1.

`C=CCn1c(=O)/c(=C/c2cc(OC)c(OC)c(OC)c2)s/c1=C(/C#N)c1nc2ccccc2n1C`: the half-maximal inhibitory concentration (IC50) is 3.5 µM and the fold change was 15.9.

`N#CC1=C(N)OC2=C(CC/C2=C\c2ccccc2)C1c1ccccc1` (stereo unspecified): the IC50 was < 0.42 µM and the fold change is 6.24.
